Columns and labels:
in vivo = assay: in vivo; design: species or system Beagle dogs; details: Beagle, dog; for AUC(0-inf): both sexes, po
Method: DMB was administered orally by capsule to Beagle dogs for 26 weeks at dose levels of 0, 50, 150 and 300 mg/kg/day. Plasma levels were measured at 1 to 24 hours post-dose on Days 1 and 181. Peak plasma concentrations were measured at 1 to 4 hour postdose on Day 0, and at 1 to 8 hours postdose during Week 26. Systemic exposure increased with increasing dose level and was greater than dose-proportional on Day 0 and Week 26. […] The peak and extent of systemic exposure of Beagle dogs to DMB were similar in males and females. Systemic exposure values at Week 26 were 138 to 153% of the values at Day 0 for 50 mg/kg, 130% for 150 mg/kg, and 100 to 102% 300 mg/kg dose levels, indicating an accumulation of DMB during this time period for the 50 and 150 mg/kg dose levels and no accumulation at the 300 mg/kg dose level.
Toxicokinetic information from the 26-week rat (Table 7) and 26-week dog toxicity studies (Table 8) are compared to systemic exposure (AUC) levels determined in a clinical study.

clinical = details: human, in vivo
Method: Patients were monitored every 2 weeks for laboratory studies, physical examinations, and adverse events. Further, patients were followed for hematologic parameters primarily focusing on hemoglobin and fetal hemoglobin (HbF). In addition, pharmacokinetic samples were obtained on Day 0 and 13, at pre-dose and 2, 4, 6, 8, 12, and 24 hours post-dosing. Hemoglobin was measured at each site using standard hematology equipment. HbF was measured using Varian HPLC. […] Adverse events in treated subjects included headache, upper respiratory infection, pyrexia, fatigue, nausea, and dizziness, but the rates of such events were not markedly different from those observed in the placebo-treated subjects.
A noncompartmental PK analysis was conducted using steady state concentration-time data for Day 13.

absolute reticulocytes = assay: Phase 1 repeat-dose clinical study, absolute reticulocytes; assay type: in vivo, human
Method: Mean absolute reticulocytes (10^9 cells/L) in the placebo group at baseline and Day 27 were 51+/−12 and 62+/−20, respectively, which was not statistically significant (p=0.19). Mean absolute reticulocytes increased on average from 50% to 60% above the mean baseline values in the subjects who received study medication. For example, at baseline in Cohort 1 (5 mg/kg, fasted) mean absolute reticulocytes were 50+/−12 and mean peak reticulocytes were 81+/−24, (p=0.02); in Cohort 4 (10 mg/kg) mean baseline reticulocytes were 58+/−8 and mean peak reticulocytes were 84+/−14, (p=0.003), and in Cohort 5 (15 mg/kg; fed), the mean baseline was 46+/−11 and mean peak level was 72+/−11, a 50% increase (p=0.001).

[1] = Cardiovascular and hemodynamic effects, 28-Day Beagle dog study; assay type: in vivo, Beagle dogs
Method: Cardiovascular safety pharmacology assessments included an in vitro screen to evaluate the effects of DMB on cardiac ion channel and an in vivo evaluation of cardiovascular and hemodynamic effects in Beagle dogs. Electrophysiologic effects were evaluated in laboratory studies utilizing voltage-clamped human embryonic kidney cells transformed by adenovirus cDNA and transfected with cDNA in order to stably express the human ether a-go-go related gene (hERG). The effect on cellular hERG channels was evaluated at DMB concentrations up to 1 mM (138 μg/mL).

Solubility in water = assay type: physicochemical
[2] = Immunotoxicology weight-of-evidence analysis, repeat dose rat study; assay type: in vivo, Sprague Dawley rat
From the text: The immunotoxicological potential of DMB has been evaluated by a weight-of-evidence analysis of the data generated in the repeat dose Sprague Dawley rat and Beagle dog studies. In both studies, there were no effects of treatment on WBC levels or lymph node histopathology, which are predictive of potential immunotoxicity.

[3] = test system: S. typhimurium tester strains TA98, TA100, TA1535, and TA1537; assay: Ames reverse bacterial mutagenicity test; details: with and without S9 mix
Method: (§1) The standard battery of in vitro genetic toxicity tests were conducted with DMB. These tests were conducted with positive and vehicle controls, with and without metabolic activation, as appropriate, and in accordance with accepted guidelines.
(§2) For the Ames (reverse bacterial mutagenicity test), the tester strains used in the mutagenicity assay were S. typhimurium tester strains TA98, TA100, TA1535, and TA1537 and E. coli tester strain WP2uvrA. The assay was conducted in both the presence and absence of S9 mix along with concurrent vehicle and positive controls using three plates per dose.

[4] = test system: E. coli tester strain WP2uvrA; assay: Ames reverse bacterial mutagenicity test; details: with and without S9 mix
Method: as §1, §2

[5] = test system: human peripheral lymphocytes; assay: Chromosome aberrations in human peripheral lymphocytes; assay type: cell-based
Method: DMB was examined for the potential to induce chromosome aberrations in human peripheral lymphocytes in the presence and absence of an exogenous metabolic activation system (S9 mix). In the 3-hour cultures (without or with activation), the highest three concentrations (2450, 3500, and 5000 μg/mL) were analyzed for chromosome aberrations. In the 22-hour treatment, 288, 412 and 588 μg/ML were analyzed for chromosome aberrations. […] The aberrations in control cultures were within historical ranges. DMB was therefore considered negative for inducing structural or numerical chromosome aberrations in human peripheral lymphocytes with and without metabolic activation.

CCC(C)(C)C(=O)[O-].[Na+] [DMB, Sodium 2,2-dimethylbutyrate]
AUC(0-inf) (in vivo; 50 mg/kg): 127 µg·h/mL | AUC(0-inf) (in vivo; 150 mg/kg): 473 µg·h/mL | AUC(0-inf) (in vivo; 300 mg/kg): 1470 µg·h/mL | increase in exposure values for a 6-fold increase in dose (50 to 300 mg/kg/day) (in vivo; female): 10.31 fold | increase in exposure values for a 6-fold increase in dose (50 to 300 mg/kg/day) (in vivo; female, 26 weeks): 7.58 fold | increase in exposure values for a 6-fold increase in dose (50 to 300 mg/kg/day) (in vivo; male): 12.85 fold | increase in exposure values for a 6-fold increase in dose (50 to 300 mg/kg/day) (in vivo; male, 26 weeks): 8.35 fold | Tmax (clinical): 2.5 to 3.1 h | half-life (clinical; 10 mg/kg): 12.1 h | half-life (clinical; 40 mg/kg): 10.3 h | mean peak reticulocytes (absolute reticulocytes; Cohort 1 (5 mg/kg, fasted), baseline 50+/−12, p=0.02): 81+/−24 10^9 cells/L | mean peak reticulocytes (absolute reticulocytes; Cohort 4 (10 mg/kg), baseline 58+/−8, p=0.003): 84+/−14 10^9 cells/L | increase of reticulocytes, baseline to peak (absolute reticulocytes; Cohort 5 (15 mg/kg; fed)): 50% | mean peak reticulocytes (absolute reticulocytes; Cohort 5 (15 mg/kg; fed), baseline 46+/−11, p=0.001): 72+/−11 10^9 cells/L | QTc prolongation, average ([1]; 500 mg/kg/day, female Beagle dogs only, not statistically different from baseline (p>0.05)): 14% | effects on systemic hemodynamics ([1]; 28-Day study): No effects | solubility (Solubility in water): > 500 mg/mL | effects on WBC levels or lymph node histopathology [2]: no effects | cytotoxicity (background lawn growth) [3]: no cytotoxicity was observed | mutation counts ([3]; up to 5000 per plate): No increase in mutation counts | cytotoxicity (background lawn growth) [4]: no cytotoxicity was observed | mutation counts ([4]; up to 5000 per plate): No increase in mutation counts | numerical aberrations (polyploidy or endoreduplication) [5]: No test article-related increase | structural chromosome aberrations compared to vehicle-treated cultures ([5]; 3 h ± S9 up to 5000 μg/mL, 22 h up to 588 μg/mL): no test article-related increases | induction of structural or numerical chromosome aberrations ([5]; with and without metabolic activation): negative

Reference: US8618068B2, “Methods and low dose regimens for treating red blood cell disorders” (priority 2009, dated 2013)
